Experimental data reported in patent publication US20060269601A1, “Oral modified release formulations containing 8-prenylnaringenin for continuous estrogen support” (priority 2005, published 2006).

Tests used:
[1] = Clinical Phase Ia study: drug serum levels after single oral dose of 8-prenylnaringenin; format: in vivo, human (postmenopausal women)
Excerpt: The pharmacokinetic profile of 8-prenylnaringenin is characterized by a complete oral absorption, a low degree of metabolization (less than 60% of dose) and a high pre-systemic elimination (first-liver-pass excretion; about 55% of dose). This high and unexpected pre-systemic elimination leads to an accumulation of substantial amounts in the bile fluid from which they are secreted into the duodenum when gastric signaling occurs with food intake. The 8-prenylnaringenin is then absorbed again and enters systemic circulation. Data were taken from the clinical Phase Ia study and represent two volunteers in the lowest dose group (50 mg 8-prenylnaringenin).
Taking the total area under the curve as a measure of 8-prenylnaringenin systemic availability, the percentage of the area under the second peak (generated by reabsorption of the pre-systemically eliminated and then biliary secreted amounts) can be used to estimate those portions of the doses that undergo pre-systemic elimination after oral dosing. The average figure was 54±20% for the six women in the study.
Re-increases in drug serum levels show reabsorption of dose parts collected in the bile fluid and subsequently secreted triggered by intake of the midday meal.
8-prenylnaringenin is analyzed by a specifically developed radio-immunoassay. A 4′-O hapten ({4-[5,7-Dihydroxy-8-(3-methyl-but-2-enyl)-4-oxo-chroman-2-yl]-phenoxy}-acetic acid) was synthesized starting from racemic naringenin and coupled to cationized bovine serum albumin (cBSA). This antigen was mixed with Freund's adjuvants and injected into rabbits. The antiserum resulting after several boosters was isolated as an IgG fraction and used in a final dilution of 1:100.000. A tritiated tracer was synthesized by preparation of the 3′,5′-dibromo derivative of 8-prenylnaringenin, again starting from racemic naringenin. Both bromine atoms were exchanged to ^3H in a final, palladium-catalyzed step leading to the tritiated tracer of a specific radioactivity of 2.22 GBq/mg.
Biological matrices, i.e. blood plasma, blood serum, or urine, are either directly extracted with tert-butyl methyl ether (tert-BME) or after enzymatic de-conjugation by means of glucuronidase/arylsulfatase (Helix pomatia). Organic layers are separated, evaporated and the residues taken up in assay buffer. Extract residues or dilutions of standard 8-prenylnaringenin solutions are then mixed with antiserum and tracer and kept at 4° C. overnight. Dextran-coated charcoal is added to separate bound and free 8-prenylnaringenin and bound radioactivity is quantified with a liquid scintillation counter after addition of a scintillation cocktail.

[2] = pH-dependent solubility of 8-prenylnaringenin; format: physicochemical; settings: dependence on pH
Excerpt: The solid oral modified release formulations of this invention show a pH-independent drug release in vitro. This is important as the pH varies considerably in the gastro-intestinal tract and continuous release should be achieved independent of the pH. However, the solubility of 8-prenylnaringenin is pH-dependent. […] The low acid solubility property of 8-prenylnaringenin results in vitro in slow drug dissolution at pH 1, whereas the dissolution is fast at higher pH-values such as pH 6.8. The resulting dissolution profiles are different at different pH-values. This problem is solved by the solid oral modified release formulation of this invention.

[3] = In vitro release/dissolution from mini-matrix tablets, basket apparatus USP XXV; format: physicochemical
Description: Measurement of the active ingredient release from mini-matrix tablets is carried out according to a one-compartment method (basket apparatus), as described in U.S. Pharmacopeia USP XXV. The release of 8-prenylnaringenin was examined in phosphate buffer solution, pH 6.8 (composition, see USP XXV) or in 0.1 N HCl. Ten percent (w/w) hydroxypropyl-β-cyclodextrine were added in order to achieve sink conditions and primarily control the drug release by the dosage form.

uterus = settings: compared with estradiol at equivalent bone protective doses; cited from earlier work

Compound: CC(C)=CCc1c(O)cc(O)c2c1OC(c1ccc(O)cc1)CC2=O (centres unmarked) [8-prenylnaringenin, 5,7-Dihydroxy-2-(4-hydroxyphenyl)-8-(3-methylbut-2-enyl)-chroman-4-on]
- percentage of the area under the second peak of total area under the curve (portion of dose undergoing pre-systemic elimination) ([1]; average for the six women in the study, after oral dosing): 54±20%
- degree of metabolization ([1]; oral dosing, human): less than 60 % of dose
- oral absorption ([1]; oral dosing, human): complete
- pre-systemic elimination (first-liver-pass excretion) ([1]; oral dosing, human): about 55 % of dose
- solubility [2]: pH-dependent
- drug dissolution in vitro ([3]; higher pH-values such as pH 6.8): fast
- drug dissolution in vitro ([3]; pH 1): slow
- activity on the uterus (uterus): much lower activity on the uterus than estradiol
